# Data taken from article PMC3158291 (Journal of medicinal chemistry, 2011).
# Tests used:
# [1] = tested on: Mycobacterium tuberculosis (Mtb), replicating; test: Minimum Inhibitory Concentration; assay type: cell-based; settings: for Mtb MIC99 μM (±SD): replicating (aerobic) Mtb, average ± SD of multiple measurements; for MIC99: Mycobacterium tuberculosis, read-out: Mtb MIC99 μM (±SD)
# [2] = tested on: Mycobacterium tuberculosis (Mtb), non-replicating; test: Minimum Anaerobicidal Concentration; assay type: cell-based; settings: non-replicating (anaerobic) Mtb; average ± SD of multiple measurements
# [3] = Stability in mouse liver microsomes; assay type: in vitro ADME; settings: calculated from intrinsic clearance in mouse liver microsomes, method of ref 21
# [4] = In vivo pharmacokinetic study, intravenous 5mg/kg; settings: mice, intravenous injection at 5mg/kg
Compound,Predicted hepatic extraction ratio [3] [%],also measured
"2−((S)−2−Nitro−6,7−dihydro−5H−imidazo[2,1−b][1,3]oxazin−6−ylamino)−2−(4−trifluoromethoxyphenyl)−ethanol [Compound 17i]",–,Mtb MIC99 μM (±SD) [1]: 0.13 ± 0.04 µM; Mtb MAC μM (±SD) [2]: 23 ± 6 µM
"CCC(=O)N(Cc1ccc(OC(F)(F)F)cc1)[C@@H]1COc2nc([N+](=O)[O-])cn2C1 [Compound 4b, (S)-N-(2-Nitro-6,7-dihydro-5H-imidazo[2,1-b][1,3]oxazin-6-yl)-N-(4-trifluoromethoxybenzyl)-propionamide]",–,Mtb MIC99 μM (±SD) [1]: Insoluble
"CN(Cc1ccc(OC(F)(F)F)cc1)[C@@H]1COc2nc([N+](=O)[O-])cn2C1 [Compound 5a, (S)-N-Methyl-2-nitro-N-4-trifluoromethoxybenzyl-6,7-dihydro-5H-imidazo[2,1-b][1,3]oxazin-6-amine]",85,–
"CCCN(Cc1ccc(OC(F)(F)F)cc1)[C@@H]1COc2nc([N+](=O)[O-])cn2C1 [Compound 5b, (S)-2-Nitro-N-propyl-N-(4-trifluoromethoxybenzyl)-6,7-dihydro-5H-imidazo[2,1-b][1,3]oxazin-6-amine]",95,–
"CC(C)N(Cc1ccc(OC(F)(F)F)cc1)[C@@H]1COc2nc([N+](=O)[O-])cn2C1 [Compound 5c, (S)-N-Isopropyl-2-nitro-N-(4-trifluoromethoxybenzyl)-6,7-dihydro-5H-imidazo[2,1-b][1,3]oxazin-6-amine]",95,–
"O=[N+]([O-])c1cn2c(n1)OC[C@@H](NCc1ccc(OC(F)(F)F)cc1Oc1ccccc1)C2 [Compound 32d, (S)-2-Nitro-N-(2-phenoxy-4-trifluoromethoxybenzyl)-6,7-dihydro-5H-imidazo[2,1-b][1,3]oxazin-6-amine]",90,–
"O=[N+]([O-])c1cn2c(n1)OC[C@@H](NCc1ccc(OC(F)(F)F)cc1OCC1CC1)C2 [Compound 32e, (S)-N-(2-Cyclopropylmethoxy-4-trifluoromethoxybenzyl)-2-nitro-6,7-dihydro-5H-imidazo[2,1-b][1,3]oxazin-6-amine]",97,–
"O=[N+]([O-])c1cn2c(n1)OC[C@@H](NCc1ccc(OC(F)(F)F)cc1OC1CC1)C2 [Compound 32f, (S)-N-(2-Cyclopropoxy-4-trifluoromethoxybenzyl)-2-nitro-6,7-dihydro-5H-imidazo[2,1-b][1,3]oxazin-6-amine]",87,–
"O=[N+]([O-])c1cn2c(n1)OC[C@@H](NCc1ccc(OC(F)(F)F)cc1O)C2 [Compound 32g, (S)-2-((2-Nitro-6,7-dihydro-5H-imidazo[2,1-b][1,3]oxazin-6-ylamino)methyl)-5-trifluoromethoxyphenol]",81,–
"O=[N+]([O-])c1cn2c(n1)OC[C@@H](NCc1ccc(OC(F)(F)F)cc1F)C2 [Compound 41a, (S)-N-(2-Fluoro-4-(trifluoromethoxy)benzyl)-2-nitro-6,7-dihydro-5H-imidazo[2,1-b][1,3]oxazin-6-amine]",81,MIC99 [1]: 0.13 ± 0.06 µM
"O=[N+]([O-])c1cn2c(n1)OC[C@@H](NCc1ccc(OC(F)(F)F)cc1Cl)C2 [Compound 41b, (S)-N-(2-Chloro-4-trifluoromethoxybenzyl)-2-nitro-6,7-dihydro-5H-imidazo[2,1-b][1,3]oxazin-6-amine]",75,MIC99 [1]: 0.12 ± 0.05 µM
"O=[N+]([O-])c1cn2c(n1)OC[C@@H](NCc1ccc(OC(F)(F)F)c(F)c1)C2 [Compound 56a, (S)-N-(3-Fluoro-4-trifluoromethoxybenzyl)-2-nitro-6,7-dihydro-5H-imidazo[2,1-b][1,3]oxazin-6-amine]",72,in vivo clearance [4]: low to moderate clearance; systemic exposure [4]: good systemic exposure
"O=[N+]([O-])c1cn2c(n1)OC[C@@H](NCc1ccc(OC(F)(F)F)c(Cl)c1)C2 [Compound 56b, (S)-N-(3-Chloro-4-trifluoromethoxybenzyl)-2-nitro-6,7-dihydro-5H-imidazo[2,1-b][1,3]oxazin-6-amine]",–,in vivo clearance [4]: low to moderate clearance; systemic exposure [4]: good systemic exposure
"O=[N+]([O-])c1cn2c(n1)OC[C@@H](NCc1ccc(OC(F)(F)F)c(Oc3ccccc3)c1)C2 [Compound 56e, (S)-2-Nitro-N-(3-phenoxy-4-(trifluoromethoxy)benzyl)-6,7-dihydro-5H-imidazo[2,1-b][1,3]oxazin-6-amine]",87,–
"O=[N+]([O-])c1cn2c(n1)OC[C@@H](NCc1ccc(OC(F)(F)F)c(O)c1)C2 [Compound 56i, (S)-5-((2-Nitro-6,7-dihydro-5H-imidazo[2,1-b][1,3]oxazin-6-ylamino)methyl)-2-(trifluoromethoxy)-phenol]",–,in vivo clearance [4]: cleared more rapidly; systemic exposure [4]: low systemic exposure
